Legend:
[1] = molecular target: Sigma non-opioid intracellular receptor 1 (Homo sapiens, UniProt Q99720); test: GPCRScan assay: inhibition of Sigma 1; design: radioligand conc. used [nm] 4.0 – 5.0, parental cells HEKT
[2] = molecular target: Mitogen-activated protein kinase kinase kinase kinase 4 (Homo sapiens) (UniProt O95819); test: MAP4K4 (HGK) Kinase screen; conditions: Compound concentration 1.0 uM
[3] = molecular target: T1, cAMP-dependent protein kinase catalytic subunit PRKX (Homo sapiens) (UniProt P51817); test: PRKX Kinase screen; conditions: Compound concentration 1.0 uM
T1 sequence (whole entry): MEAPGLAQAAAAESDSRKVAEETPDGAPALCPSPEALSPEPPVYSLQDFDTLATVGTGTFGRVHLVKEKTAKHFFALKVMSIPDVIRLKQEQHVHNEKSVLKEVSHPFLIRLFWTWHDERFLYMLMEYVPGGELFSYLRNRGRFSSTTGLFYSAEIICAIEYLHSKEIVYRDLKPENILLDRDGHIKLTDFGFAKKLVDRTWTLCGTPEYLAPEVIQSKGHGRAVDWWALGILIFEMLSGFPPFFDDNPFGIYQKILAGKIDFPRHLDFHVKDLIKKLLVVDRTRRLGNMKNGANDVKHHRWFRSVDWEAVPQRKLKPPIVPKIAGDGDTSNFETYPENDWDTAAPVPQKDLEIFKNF

[4] = molecular target: T2, Ephrin type-B receptor 1 (Homo sapiens) (UniProt P54762); test: EPHB1 Kinase screen; conditions: Compound concentration 1.0 uM
T2 sequence (whole entry): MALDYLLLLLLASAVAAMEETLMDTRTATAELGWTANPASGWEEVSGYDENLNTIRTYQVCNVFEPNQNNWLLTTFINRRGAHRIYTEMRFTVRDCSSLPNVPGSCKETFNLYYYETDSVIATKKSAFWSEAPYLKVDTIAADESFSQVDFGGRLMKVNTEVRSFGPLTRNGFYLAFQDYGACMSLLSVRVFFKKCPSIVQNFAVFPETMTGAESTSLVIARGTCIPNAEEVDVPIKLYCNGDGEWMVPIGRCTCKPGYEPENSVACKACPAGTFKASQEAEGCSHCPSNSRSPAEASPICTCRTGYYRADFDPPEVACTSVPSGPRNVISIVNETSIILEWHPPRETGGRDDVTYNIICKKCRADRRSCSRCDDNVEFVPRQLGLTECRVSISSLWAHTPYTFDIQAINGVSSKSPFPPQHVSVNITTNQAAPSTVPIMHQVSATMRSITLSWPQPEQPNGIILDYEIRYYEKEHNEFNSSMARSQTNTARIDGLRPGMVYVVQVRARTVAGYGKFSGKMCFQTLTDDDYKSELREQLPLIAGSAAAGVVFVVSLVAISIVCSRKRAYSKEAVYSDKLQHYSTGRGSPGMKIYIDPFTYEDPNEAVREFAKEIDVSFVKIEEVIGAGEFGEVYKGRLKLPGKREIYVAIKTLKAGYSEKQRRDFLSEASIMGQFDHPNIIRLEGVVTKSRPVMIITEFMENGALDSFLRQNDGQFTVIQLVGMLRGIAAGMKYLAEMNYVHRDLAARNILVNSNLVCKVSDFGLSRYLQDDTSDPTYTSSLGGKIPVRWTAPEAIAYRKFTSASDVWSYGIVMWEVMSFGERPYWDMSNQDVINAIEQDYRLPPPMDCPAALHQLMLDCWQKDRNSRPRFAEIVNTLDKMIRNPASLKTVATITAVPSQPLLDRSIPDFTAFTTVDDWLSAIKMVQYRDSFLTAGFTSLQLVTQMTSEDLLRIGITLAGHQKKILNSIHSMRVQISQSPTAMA

[5] = molecular target: Calcium/calmodulin-dependent protein kinase type II subunit alpha (Homo sapiens) (UniProt Q9UQM7); test: CAMK2A (CaMKII alpha) Kinase screen; conditions: Compound concentration 1.0 uM
Sequence of Calcium/calmodulin-dependent protein kinase type II subunit alpha (Homo sapiens) (Q9UQM7 whole entry): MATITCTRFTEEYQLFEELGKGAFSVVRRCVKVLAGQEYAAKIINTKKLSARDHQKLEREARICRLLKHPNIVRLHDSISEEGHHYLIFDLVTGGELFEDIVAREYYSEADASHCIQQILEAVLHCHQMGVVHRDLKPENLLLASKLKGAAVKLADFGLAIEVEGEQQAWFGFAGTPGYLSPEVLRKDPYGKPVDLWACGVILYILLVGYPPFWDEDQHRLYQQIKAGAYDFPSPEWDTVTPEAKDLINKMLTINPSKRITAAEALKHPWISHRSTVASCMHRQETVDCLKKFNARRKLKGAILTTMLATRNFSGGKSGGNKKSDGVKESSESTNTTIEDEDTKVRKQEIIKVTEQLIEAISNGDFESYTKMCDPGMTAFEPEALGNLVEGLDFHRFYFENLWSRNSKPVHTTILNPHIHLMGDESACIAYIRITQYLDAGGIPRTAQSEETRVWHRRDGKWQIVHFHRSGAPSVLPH

[6] = molecular target: Mitogen-activated protein kinase 1 (Homo sapiens) (UniProt P28482); test: MAPK1 (ERK2) Kinase screen; conditions: Compound concentration 1.0 uM
Sequence of Mitogen-activated protein kinase 1 (Homo sapiens) (P28482 whole entry): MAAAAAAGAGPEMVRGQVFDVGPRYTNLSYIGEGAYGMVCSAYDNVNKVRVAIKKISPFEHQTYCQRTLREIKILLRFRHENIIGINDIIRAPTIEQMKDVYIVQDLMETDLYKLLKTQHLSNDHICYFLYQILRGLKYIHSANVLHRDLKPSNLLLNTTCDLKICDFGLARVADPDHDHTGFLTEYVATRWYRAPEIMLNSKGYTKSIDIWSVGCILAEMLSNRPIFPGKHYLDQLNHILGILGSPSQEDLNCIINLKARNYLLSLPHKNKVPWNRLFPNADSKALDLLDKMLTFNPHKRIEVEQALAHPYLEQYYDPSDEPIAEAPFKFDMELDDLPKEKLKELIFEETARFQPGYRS

[7] = molecular target: T3, Tyrosine-protein kinase ITK/TSK (Homo sapiens) (UniProt Q08881); test: ITK Kinase screen; conditions: Compound concentration 1.0 uM
T3 sequence (whole entry): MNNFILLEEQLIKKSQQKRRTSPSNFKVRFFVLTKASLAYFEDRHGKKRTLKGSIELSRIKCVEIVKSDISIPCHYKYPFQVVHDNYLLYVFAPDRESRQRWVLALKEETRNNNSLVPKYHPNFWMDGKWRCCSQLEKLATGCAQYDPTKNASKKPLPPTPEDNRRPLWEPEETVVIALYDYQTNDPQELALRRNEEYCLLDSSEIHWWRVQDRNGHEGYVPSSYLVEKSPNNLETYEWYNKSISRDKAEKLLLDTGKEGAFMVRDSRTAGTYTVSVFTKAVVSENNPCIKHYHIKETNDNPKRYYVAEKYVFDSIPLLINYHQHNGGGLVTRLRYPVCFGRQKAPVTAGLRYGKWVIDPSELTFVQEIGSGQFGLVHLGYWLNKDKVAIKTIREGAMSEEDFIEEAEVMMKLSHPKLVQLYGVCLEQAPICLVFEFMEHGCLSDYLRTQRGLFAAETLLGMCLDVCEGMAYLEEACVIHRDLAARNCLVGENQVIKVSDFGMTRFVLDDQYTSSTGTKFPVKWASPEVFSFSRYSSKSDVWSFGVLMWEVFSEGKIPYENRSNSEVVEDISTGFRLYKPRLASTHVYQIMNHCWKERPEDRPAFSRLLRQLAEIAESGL

[8] = molecular target: MAP/microtubule affinity-regulating kinase 3 (Homo sapiens) (UniProt P27448); test: Protein Serine/Threonine Kinase, MARK3 Eurofins-Panlabs enzyme assay; conditions: Compound concentration 10.0 uM
Sequence of MAP/microtubule affinity-regulating kinase 3 (Homo sapiens) (P27448 whole entry, looked up): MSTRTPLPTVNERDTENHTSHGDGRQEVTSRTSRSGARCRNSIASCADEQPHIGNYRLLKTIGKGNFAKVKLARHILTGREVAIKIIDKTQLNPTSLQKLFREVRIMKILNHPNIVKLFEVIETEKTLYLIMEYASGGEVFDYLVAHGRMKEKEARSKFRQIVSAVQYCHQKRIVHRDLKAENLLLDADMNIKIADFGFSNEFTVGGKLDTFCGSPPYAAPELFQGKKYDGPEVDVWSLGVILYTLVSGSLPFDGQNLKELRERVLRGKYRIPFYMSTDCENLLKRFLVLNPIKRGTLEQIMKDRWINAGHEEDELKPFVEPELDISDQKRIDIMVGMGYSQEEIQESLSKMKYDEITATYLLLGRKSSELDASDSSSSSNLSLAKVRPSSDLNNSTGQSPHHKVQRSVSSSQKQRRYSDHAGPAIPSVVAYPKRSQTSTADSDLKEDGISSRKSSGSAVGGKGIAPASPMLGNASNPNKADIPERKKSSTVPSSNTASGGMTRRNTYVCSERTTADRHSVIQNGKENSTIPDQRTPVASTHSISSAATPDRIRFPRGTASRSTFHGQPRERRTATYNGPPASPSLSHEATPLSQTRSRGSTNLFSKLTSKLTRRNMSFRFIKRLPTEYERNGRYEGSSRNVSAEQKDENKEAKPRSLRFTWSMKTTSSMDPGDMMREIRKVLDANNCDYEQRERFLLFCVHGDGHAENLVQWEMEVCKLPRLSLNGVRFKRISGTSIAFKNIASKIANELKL

[9] = molecular target: AMP-activated protein kinase (AMPK) alpha-1/beta-1/gamma-1 (Homo sapiens) (UniProt P54619+Q9Y478+Q13131); test: AMPK A1/B1/G1 Kinase screen; assay type: protein-complex assay; conditions: Compound concentration 1.0 uM
[10] = molecular target: Dual specificity tyrosine-phosphorylation-regulated kinase 1B (Homo sapiens) (UniProt Q9Y463); test: DYRK1B Kinase screen; conditions: Compound concentration 1.0 uM
[11] = molecular target: Mitogen-activated protein kinase 14 (Homo sapiens) (UniProt Q16539); test: Inhibition of Protein Serine/Threonine Kinase, MAPK14 (p38α) at 10 µM in the Eurofins-Panlabs enzyme assay (Eurofins_assay_176610); design: substrate with concentration; conditions: Compound concentration 10.0 uM
Sequence of Mitogen-activated protein kinase 14 (Homo sapiens) (Q16539 whole entry): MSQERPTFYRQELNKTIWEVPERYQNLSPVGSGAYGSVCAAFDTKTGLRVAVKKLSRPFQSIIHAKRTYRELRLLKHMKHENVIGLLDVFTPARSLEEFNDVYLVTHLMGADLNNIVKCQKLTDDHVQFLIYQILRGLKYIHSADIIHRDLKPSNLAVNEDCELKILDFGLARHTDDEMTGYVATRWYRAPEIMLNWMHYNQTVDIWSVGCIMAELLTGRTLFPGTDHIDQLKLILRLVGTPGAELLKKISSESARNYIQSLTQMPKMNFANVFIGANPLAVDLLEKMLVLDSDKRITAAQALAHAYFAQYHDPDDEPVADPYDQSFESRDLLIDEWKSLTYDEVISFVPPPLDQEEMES

Homo sapiens = organism: Homo sapiens; test: Chemokine CCR1 Eurofins-Panlabs radioligand binding assay; design: ligand concentration 0.1 nM; conditions: Compound concentration 10.0 uM
[12] = molecular target: Melanocortin receptor 4 (Homo sapiens) (UniProt P32245); test: Inhibition of Melanocortin MC4 at 10 µM in the Eurofins-Panlabs radioligand binding assay (Eurofins_assay_251350); design: ligand concentration 0.02 nM; conditions: Compound concentration 10.0 uM
Sequence of Melanocortin receptor 4 (Homo sapiens) (P32245 whole entry): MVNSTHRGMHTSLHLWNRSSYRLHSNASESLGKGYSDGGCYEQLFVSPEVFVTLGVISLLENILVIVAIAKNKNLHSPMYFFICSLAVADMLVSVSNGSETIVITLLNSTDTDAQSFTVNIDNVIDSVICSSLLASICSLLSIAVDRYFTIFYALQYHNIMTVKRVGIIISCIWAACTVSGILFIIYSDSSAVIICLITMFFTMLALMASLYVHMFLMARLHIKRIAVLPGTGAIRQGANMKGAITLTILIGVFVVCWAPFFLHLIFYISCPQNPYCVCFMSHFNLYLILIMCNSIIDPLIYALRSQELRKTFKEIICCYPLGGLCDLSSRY

[13] = molecular target: Serine/threonine-protein kinase 16 (Homo sapiens) (UniProt O75716); test: STK16 (PKL12) Kinase screen; conditions: Compound concentration 1.0 uM
Sequence of Serine/threonine-protein kinase 16 (Homo sapiens) (O75716 whole entry): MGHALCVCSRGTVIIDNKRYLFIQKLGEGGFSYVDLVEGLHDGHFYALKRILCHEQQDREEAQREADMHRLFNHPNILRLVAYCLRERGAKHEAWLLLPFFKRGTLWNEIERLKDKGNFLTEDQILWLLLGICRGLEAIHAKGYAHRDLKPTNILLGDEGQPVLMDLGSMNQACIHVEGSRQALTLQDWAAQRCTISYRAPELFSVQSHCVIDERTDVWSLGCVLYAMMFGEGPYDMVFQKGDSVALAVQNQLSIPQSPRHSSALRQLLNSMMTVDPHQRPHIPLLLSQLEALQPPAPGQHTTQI

[14] = molecular target: Macrophage colony-stimulating factor 1 receptor (Homo sapiens) (UniProt P07333); test: CSF1R (FMS) Kinase screen; conditions: Compound concentration 1.0 uM
Sequence of Macrophage colony-stimulating factor 1 receptor (Homo sapiens) (P07333 whole entry): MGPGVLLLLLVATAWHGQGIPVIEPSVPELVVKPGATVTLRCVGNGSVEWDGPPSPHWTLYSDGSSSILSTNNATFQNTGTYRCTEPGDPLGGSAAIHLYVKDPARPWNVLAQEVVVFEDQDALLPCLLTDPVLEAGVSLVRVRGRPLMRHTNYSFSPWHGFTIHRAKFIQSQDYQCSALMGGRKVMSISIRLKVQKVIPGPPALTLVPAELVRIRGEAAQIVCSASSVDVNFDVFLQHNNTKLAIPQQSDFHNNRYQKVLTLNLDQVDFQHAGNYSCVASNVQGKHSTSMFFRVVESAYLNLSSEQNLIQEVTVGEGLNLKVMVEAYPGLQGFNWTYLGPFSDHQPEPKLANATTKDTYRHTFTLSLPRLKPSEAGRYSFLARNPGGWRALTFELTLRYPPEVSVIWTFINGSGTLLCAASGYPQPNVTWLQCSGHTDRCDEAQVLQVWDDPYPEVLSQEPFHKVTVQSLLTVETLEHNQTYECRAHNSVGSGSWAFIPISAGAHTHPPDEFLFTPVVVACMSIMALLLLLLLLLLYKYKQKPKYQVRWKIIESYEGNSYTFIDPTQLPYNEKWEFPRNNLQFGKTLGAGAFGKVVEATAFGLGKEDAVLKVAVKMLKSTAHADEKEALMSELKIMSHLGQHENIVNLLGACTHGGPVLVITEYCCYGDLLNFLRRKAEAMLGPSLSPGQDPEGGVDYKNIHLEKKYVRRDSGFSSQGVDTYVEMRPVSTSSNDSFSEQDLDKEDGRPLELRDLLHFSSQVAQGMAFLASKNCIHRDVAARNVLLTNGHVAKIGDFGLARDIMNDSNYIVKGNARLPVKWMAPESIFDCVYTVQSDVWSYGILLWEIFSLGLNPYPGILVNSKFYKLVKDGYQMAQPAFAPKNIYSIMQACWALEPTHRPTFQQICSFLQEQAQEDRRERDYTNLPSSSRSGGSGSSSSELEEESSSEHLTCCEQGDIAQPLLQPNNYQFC

Sequence of Mitogen-activated protein kinase kinase kinase kinase 4 (Homo sapiens) (O95819 2-1239 limits assumed): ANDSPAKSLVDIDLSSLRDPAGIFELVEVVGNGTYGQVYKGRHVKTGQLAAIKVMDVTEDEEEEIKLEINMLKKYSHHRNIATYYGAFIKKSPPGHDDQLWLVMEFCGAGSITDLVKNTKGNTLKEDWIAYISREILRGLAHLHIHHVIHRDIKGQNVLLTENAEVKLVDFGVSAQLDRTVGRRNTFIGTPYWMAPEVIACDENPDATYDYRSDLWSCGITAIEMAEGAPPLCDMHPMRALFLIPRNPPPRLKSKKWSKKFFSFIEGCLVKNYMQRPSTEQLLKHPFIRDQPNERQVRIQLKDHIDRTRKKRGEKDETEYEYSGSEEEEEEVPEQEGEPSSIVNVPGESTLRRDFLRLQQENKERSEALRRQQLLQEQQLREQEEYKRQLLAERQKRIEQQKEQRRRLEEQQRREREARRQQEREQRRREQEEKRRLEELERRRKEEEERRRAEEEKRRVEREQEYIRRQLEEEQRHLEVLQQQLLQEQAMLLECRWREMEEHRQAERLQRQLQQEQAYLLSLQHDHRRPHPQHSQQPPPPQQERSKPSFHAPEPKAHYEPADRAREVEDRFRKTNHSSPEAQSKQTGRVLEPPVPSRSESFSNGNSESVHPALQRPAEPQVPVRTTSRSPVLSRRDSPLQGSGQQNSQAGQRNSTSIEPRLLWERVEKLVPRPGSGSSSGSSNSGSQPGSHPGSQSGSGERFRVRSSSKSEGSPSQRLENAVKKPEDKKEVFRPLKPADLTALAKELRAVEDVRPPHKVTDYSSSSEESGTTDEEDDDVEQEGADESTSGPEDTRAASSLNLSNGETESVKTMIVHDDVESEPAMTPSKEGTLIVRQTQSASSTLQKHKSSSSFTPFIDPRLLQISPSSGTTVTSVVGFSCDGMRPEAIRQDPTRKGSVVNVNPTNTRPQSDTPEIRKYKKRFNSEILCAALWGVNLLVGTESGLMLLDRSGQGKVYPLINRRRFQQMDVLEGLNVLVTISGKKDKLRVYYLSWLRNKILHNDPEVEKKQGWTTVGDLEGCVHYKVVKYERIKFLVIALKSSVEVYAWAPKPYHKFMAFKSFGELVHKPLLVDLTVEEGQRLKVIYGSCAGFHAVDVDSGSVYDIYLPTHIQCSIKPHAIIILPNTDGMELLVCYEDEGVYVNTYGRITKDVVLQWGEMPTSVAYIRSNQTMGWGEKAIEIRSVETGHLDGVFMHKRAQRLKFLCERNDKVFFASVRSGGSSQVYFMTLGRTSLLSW
Sequence of Sigma non-opioid intracellular receptor 1 (Q99720 whole entry): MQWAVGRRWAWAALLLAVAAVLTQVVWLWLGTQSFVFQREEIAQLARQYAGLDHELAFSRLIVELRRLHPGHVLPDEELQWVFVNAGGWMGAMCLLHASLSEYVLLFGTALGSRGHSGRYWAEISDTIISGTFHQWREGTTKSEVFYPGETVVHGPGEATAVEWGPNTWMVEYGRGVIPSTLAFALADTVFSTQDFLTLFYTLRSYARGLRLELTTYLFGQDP

Row | SMILES | Ki [1] [µM] | inhibition [2] [%] | inhibition [3] [%] | inhibition [4] [%] | inhibition [5] [%] | inhibition [6] [%] | inhibition [7] [%] | inhibition [8] [%] | inhibition [9] [%] | inhibition [10] [%] | inhibition [11] [%] | inhibition (Homo sapiens) [%] | inhibition [12] [%] | inhibition [13] [%] | inhibition [14] [%]
1 | C[C@@H]1CN(c2cc(-c3nn(C)c4ccc(OC5(C)CC5)cc34)ncn2)C[C@H](C)O1 [MLi-2-NC] | 1.59 | – | – | – | – | – | – | – | – | – | – | – | – | – | –
2 | C[C@@H]1CN(c2cc(-c3n[nH]c4ccc(OC5(C)CC5)cc34)ncn2)C[C@H](C)O1 [MLi-2] | – | 17.1 | 1.54 | 3.46 | 7.96 | -3.99 | 2.04 | 11 | -3.77 | 1.77 | 19 | -3 | -6 | 2.58 | 6.91

Source: ChEMBL document CHEMBL4507291 (2021)
